Experimental data reported in patent US7947653B1, “Methods for treating epidermal growth factor receptor tyrosine kinase inhibitor-resistant cancers” (Cold Spring Harbor Laboratory, priority 2009, dated 2011).

How the values were obtained:
[1] = tested on: NCI-H1650 cells; assay: Soft agar assay; assay type: cell-based, human; settings: NCI-H1650, erlotinib with or without IL-6 (10 ng/ML)
Method: Cells were plated in triplicate in 12-well plates at 5000 cells/well, mixed in RPMI-1640, 5% FBS and 0.35% agarose. Cells were cultured for 20 days in presence of the indicated treatment. Colonies were visualized by staining with tetrazolium salt (Schaeffer W. I., Friend K. (1976) Cancer Lett 1:259-262). The number of colonies were determined using the J-Image software (htpp://rsbweb.hih.gov/ij/) on Z-stack images (Z=1.5 mm) at 5× magnification. Each data point represents the average of 3 fields from 3 individual wells.
The numbers of cell colonies were countered after a suitable period of time. The number of colonies were determined using the J-image software on Z-stack images (Z=1.5.mm) at 5× magnification. […] See FIG. 3, Panel C (each point represents the average of 3 fields from individual wells). […] See FIG. 3, Panel D (each bar representing the average of 4 replicates).

[2] = tested on: NSCLC cell lines expressing mutant EGFR; assay: Cell proliferation upon stimulation with IL-6; assay type: cell-based, human; settings: stimulation with IL-6 (10 ng/ml)
[3] = tested on: phospho-STAT3; assay: Western blot for phospho-STAT3, parental cells; assay type: cell-based, human
Method: (§1) Adherent cells were washed with 1×PBS and whole cell lysate was extracted and western blot analysis was performed as previously described (Sordella et al. Science 305, 1163-1167; 2004). Antibodies against phosphor-EGFR (Tyr1068), total Akt, phospho-Akt (Ser473), total ERK 1/2, phospho-ERK 1/2 (Thr202/tyr204), phospho-STAT3 (Tyr705), cleaved PARP and phospho-MET (Tyr1234/Tyr1235) were purchased from Cell Signaling Technology (Danvers, Mass.). Total cMET and total EGFR antibodies were purchased from Santa Cruz Biotechnology (Santa Cruz, Calif.). The antibody against total STAT3 was purchased from BD Biosciences (San Jose, Calif.).
(§2) Cell extracts were analyzed by immunoblotting with antibodies specific to Tubulin, AKT, P-AKT, STAT3, and P-STAT3.

[4] = tested on: P-AKT; assay: Western blot for P-AKT; assay type: cell-based, human
Method: as §1, with “Antibodies” for “Adherent cells were washed with 1×PBS and whole cell lysate was extracted and western blot analysis was performed as previously described (Sordella et al. Science 305, 1163-1167; 2004). Antibodies”
as §2

[5] = tested on: PC9 cells; assay: Sensitivity to erlotinib with IL-6, MTT assay; assay type: cell-based, human; settings: PC9, 10 ng/ml IL-6 24 hours, then erlotinib at various concentrations 72 hours
[6] = tested on: cleaved PARP; assay: Immunoblot for cleaved PARP (apoptosis); assay type: cell-based, human
Method: as §1
Cells not treated with the drug were used as a control. Cell extracts obtained after 72 hours were analyzed by immunoblotting for cleaved PARP (CL-PARP), an indicator of apoptosis status.

[7] = tested on: IL-6; assay: IL-6 immunostaining of tumor sections; assay type: in vivo, Nu/Nu mice; settings: TPA-treated versus acetone-treated mice, topical
Method: Formalin-fixed, paraffin-embedded sections (4 μm) were stained for IL-6. Sections were de-embedded and rehydrated and epitope retrieval was performed by heating the sections in 0.01M citrate buffer at pH 6.0 in a microwave oven for 10 minutes. Endogenous peroxidase activity was blocked by treatment with 3% hydrogen peroxide in PBS for 10 minutes. After washing with PBS the blocking was performed using the Avidin/Biotin blocking kit (Vector laboratories, Cambridge, UK), Super Block (ID laboratories, London, CDN) and Mouse Block (ID laboratories, London, CDN). The sections were incubated with the primary antibody IL-6 (ab6672; Abcam, Cambridge, UK) in 1:300 dilution at 4° C. overnight. The IHC detection was done with the IDetect Super Stain System HRP (ID laboratories, London, CDN). […]
Protein expression was measured by defining regions of interest (ROI) using automated cell acquisition and quantification software for Immunohistochemistry (Histoquest™) and immunofluorescence (Tissuequest™).
Immunostaining of tumor sections using an anti-IL-6 antibody confirmed that TPA was able to augment IL-6 expression in the tumors. […] The levels of IL-6 in tumor matters were further measured by defining regions of interest (ROI) using automated cell acquisition and quantification software for immunohistochemistry (Histoquest™) or quantification software for immunofluorescence (Tissuequest™). […]

[8] = tested on: NCI-H1650 cells; assay: Mouse xenograft model, tumor burden; assay type: in vivo, Nu/Nu mice; settings: topical TPA 5 days, then erlotinib by oral gavage versus DMSO
Method: The in vivo mouse experiments were performed by inoculating subcutaneously 3×10^6 NCI-H1650 cells subcutaneously into each flank of immunodeficient Nu/Nu mice in Swiss CD 1 background (Charles River Breeding Laboratories, Wilmington, Mass.). After the tumors reached a volume of approximately 100 mm^3, mice were treated topically every 2 days with TPA (10 μL of 0.25 mg/mL solution in acetone) or with acetone for 5 days. […] Tumor volume was monitored with a digital caliper and calculated using the following formula: (length)×(width)^2/2.
IL-6 is a pleiotropic cytokine that exerts important biological functions in a wide variety of systems and processes (e.g., inflammation, acute-phase reaction, nervous and endocrine systems, bone metabolism, hematopoiesis). […] Cutaneous inflammation and secretion of IL-6 by topic treatment of the mouse epidermis with low dose of 12-O-tetradecanoyl-phorbol-13-acetate (TPA) every other day was induced in a Nu/nu mouse model (Vasunia et al. Carcinogenesis 1994, 15: 653). Acetone was used as a vehicle control. The Nu/nu mice were subsequently injected in the flank with NSCLC expressing mutant EGFR.
After 8 days, tumor burden was evaluated and the averages of four separate tumors were charted.

[9] = tested on: NCI-H1650 M3 cells; assay: Sensitivity to erlotinib, MTT assay, erlotinib-resistant cells; assay type: cell-based, human
Method: Viability was measured by MTT assay relative to untreated cells, with each data point showing the average of four replicates.

[10] = tested on: phospho-STAT3; assay: Western blot for phospho-STAT3, NCI-H1650 M3 cells; assay type: cell-based, human
Method: as §1
To determine whether IL-6 was the autocrine factor responsible for promoting STAT3 phosphorylation in the erlotinib-resistant cells, the expression of IL-6 was inhibited using siRNA technology. Briefly, NCI-H 1650 M3 cells were transfected with siRNA targeting IL-6 (siRNA I and II) or a non-specific siRNA (siRNA III) using Lipofectamine 2000 at a final concentration of 30 nM siRNA. After 6 days cell extracts were analyzed by immunoblotting for phospho-STAT3, STAT3 and tubulin. […] Thus, an increased secretion of IL-6 was responsible for the observed STAT3 phosphorylation. […] Cell extracts were analyzed by immunoblot for phospho-STAT3 and total STAT3. […]

[11] = tested on: IL-6; assay: IL-6 ELISA of cell media; assay type: cell-based, human; settings: NCI-H1650 M3, in the presence of erlotinib 10 μM
Method: Cells were grown to approximately 80% confluency. Cells were washed with 1×PBS and fresh media was added. After 24 hours the supernatant was collected and analyzed for IL-6 using an ELISA kit (Diaclone, Canton, Mass.) following the manufacturers instruction.
The mRNA levels of various secreted proteins, including HGF, EGF, LIF, CNTF, IL-1A, IL-11, OSM and IL-6 (which are known to increase STAT3 phosphorylation), were examined by RT-PCR, the results normalized against beta-actin mRNA levels. No substantial levels of HGF were detected in either the parental-sensitive cells or in the resistant cells. Among these protein factors, a substantial increase in IL-6 mRNA levels was found in the resistant cells as compared to parental cells. This increase in IL-6 mRNA expression correlated with augmented levels of the protein secretion as determined by enzyme-linked immunosorbent assay (ELISA). See FIG. 2, Panel A; levels of IL-6 were measured by ELISA with each point representing the average of four data points.

[12] = tested on: NCI-H1650; assay: Sensitivity to erlotinib, MTT assay; assay type: cell-based; settings: Homo sapiens, read-out: IC50 to either gefitinib or erlotinib treatment; NCI-H1650, EGFR delE746-A750; 'typically displays'
[13] = tested on: P-EGFR; assay: Western blot for P-EGFR, parental and resistant cells; assay type: cell-based, human; settings: parental versus NCI-H1650 M3, erlotinib 0.01-10 μM, 3 hours
Source text: as §1, with “Antibodies” for “Adherent cells were washed with 1×PBS and whole cell lysate was extracted and western blot analysis was performed as previously described (Sordella et al. Science 305, 1163-1167; 2004). Antibodies”

[14] = cells grown with or without IL-6, then erlotinib 4 hours, cell line not stated

**Q.** What does the source list for “IL-6: Recombinant Interleukin-6 (rhIL6) from R&D systems”?
**A.** cell resistance to erlotinib (number of colonies in soft agar) [1]: significantly increased cell resistance to erlotinib; cell proliferation [2]: No substantial changes; effect on erlotinib-mediated inhibition of STAT3 phosphorylation [3, 14]: impaired inhibition of STAT3 phosphorylation; effect on erlotinib-mediated inhibition of AKT activation [4, 14]: did not have any effect; cell resistance to erlotinib (viability by MTT) [5]: increased PC9 cell resistance to erlotinib; CL-PARP levels in the drug treated cells ([6]; resistant cells grown with IL-6 24 hours, then erlotinib, 72 hours): decreased CL-PARP levels

**Q.** What does the source list for `CCCCCCCCCCCCCC(=O)O[C@@H]1[C@@H](C)[C@@]2(O)[C@@H](C=C(CO)C[C@]3(O)C(=O)C(C)=C[C@@H]23)[C@@H]2C(C)(C)[C@]12OC(C)=O` [TPA, 12-O-tetradecanoyl-phorbol-13-acetate]?
**A.** IL-6 mean intensity in tumors [7]: much higher; tumor response to erlotinib treatment (tumor burden) [8]: dramatically reduced

**Q.** For `CC(C)(C)c1nc2c3ccc(F)cc3c3c(=O)[nH]ccc3c2[nH]1` [P6, 2-tert-butyl-9-fluoro-3,6-dihydro-7H-benz[h]-imidaz[4,5-f] isoquinoline-7-one], which “cell viability upon erlotinib treatment” value ([9]; NCI-H1650 M3, P6 2 μM) is on record?
**A.** significantly decreased

**Q.** And the STAT3 phosphorylation levels ([10]; NCI-H1650 M3, 2 μM, 2 days)?
**A.** decreased

**Q.** What does the source list for `C#Cc1cccc(Nc2ncnc3cc(OCCOC)c(OCCOC)cc23)c1` [erlotinib, N-(3-ethynylphenyl)-6,7-bis(2-methoxyethoxy)quinazolin-4-amine]?
**A.** erlotinib concentration in the presence of which the isolated cell line is capable of growing ([9]; NCI-H1650 M3, selected in constant high erlotinib): up to 30 μM; cell viability of NCI-H1650 M3 cells versus parental cells ([9]; erlotinib 0.3125-10 μM, 72 hours, particularly at high concentrations): much higher than that of the parental cells; IL-6 levels in the media (ELISA) [11]: did not change; IC50 [12]: ~5 µM; phosphorylated STAT3 ([3]; parental NCI-H1650 cells, high erlotinib concentrations, 3 hours): undetectable; STAT3 phosphorylation levels ([10]; NCI-H1650 M3, erlotinib up to 10 μM, 3 hours): maintained high STAT3 phosphorylation levels; levels of phosphorylation of AKT ([4]; parental versus NCI-H1650 M3, erlotinib treatment): similarly inhibited; EGFR phosphorylation levels upon erlotinib treatment [13]: comparable inhibition; cleavage of PARP upon erlotinib treatment ([6]; NCI-H1650 M3 compared to parental cells, erlotinib 10 μM, 24 hours): substantial decrease; level of CL-PARP in erlotinib-treated cells compared to control cells ([6]; resistant cells, extracts after 72 hours): significantly increased
